Tests used:
MDA-MB-231 cells = test: MTT cytotoxicity assay against MDA-MB-231; format: cell-based; settings: Homo sapiens, 48 h, read-out: Percentage of inhibition against treated concentrations; for activity at 1 µM: MDAMB231, 1 µM; for activity at 5 µM: MDAMB231, 5 µM; for activity at 10 µM: MDAMB231, 10 µM; for activity at 25 µM: MDAMB231, 25 µM; for activity at 50 µM: MDAMB231, 50 µM
Method: (§1) Anticancer activity of 7a–s has been evaluated by MTT [3-(4,5-dimethylthiazol-2-yl)-2,5-diphenyl-tetrazolium bromide] assay and the cell lines HT29 (ATCC: HTB-38), MDA-MB-231 (ATCC: HTB-26), HEK293T (ATCC: CRL-3216) were procured from American type cell culture collection (ATCC), Manassas, USA and other chemicals were procured from Sigma-Aldrich. Then absorbance (used as a measure of cell proliferation) was measured at 570 nm with a kinetic micro-plate reader (BioTek, Winooski, Vermont).
(§2) Having synthesized a series of the title compounds, all of them were screened for their in vitro anticancer profiles against a panel of human colorectal adenocarcinoma (HT29), human breast adenocarcinoma (MDA-MB-231) and mutated Human embryonic kidney 293 (HEK293T) cancer cell lines by using MTT colourmetric assay as per Johan van Meerloo protocol. The three cell lines were cultured in […] medium and supplemented with 10% FBS followed by 100 units/mL penicillin/ streptomycin and were cultured at 37 °C in 5% CO2. Cell proliferation of the growing cells was measured in terms of logarithmic standards. Analytically, all the cultured cells were plated onto 96 well plates at a starting density of 10^5 cells. Then all the cells were treated with title compounds 7a–s for a period of 48 h with different concentrations. After this incubation cell proliferation inhibition was determined by MTT assay and all the experiments were conducted in triplicates and readings were presented as mean ± SD and provided in Tables 1, 2 and 3.

HEK293T cells = test: MTT cytotoxicity assay against HEK293T; format: cell-based; settings: Homo sapiens, HEK-293T, 48 h, read-out: Percentage of inhibition against treated concentrations
Method: as §1, §2

HT29 cells = test: MTT cytotoxicity assay against HT29; format: cell-based; settings: Homo sapiens, 48 h, read-out: Percentage of inhibition against treated concentrations; for activity at 1 µM: HT-29, HT29, 1 µM; for activity at 5 µM: HT-29, HT29, 5 µM; for activity at 10 µM: HT-29, HT29, 10 µM; for activity at 25 µM: HT-29, HT29, 25 µM; for activity at 50 µM: HT-29, HT29, 50 µM
Method: as §1, §2

| melting point | Structure (SMILES) | activity at 1 µM (MDA-MB-231 cells) | activity at 5 µM (MDA-MB-231 cells) | activity at 10 µM (MDA-MB-231 cells) | activity at 25 µM (MDA-MB-231 cells) | activity at 50 µM (MDA-MB-231 cells) | activity at 1 µM (HEK293T cells) | activity at 5 µM (HEK293T cells) | activity at 10 µM (HEK293T cells) | activity at 25 µM (HEK293T cells) | activity at 50 µM (HEK293T cells) | activity at 1 µM (HT29 cells) | activity at 5 µM (HT29 cells) | activity at 10 µM (HT29 cells) | activity at 25 µM (HT29 cells) | activity at 50 µM (HT29 cells) |
| --- | --- | --- | --- | --- | --- | --- | --- | --- | --- | --- | --- | --- | --- | --- | --- | --- |
| 231 to 233 °C | O=C(c1cccnc1)N1CCn2c3ccccc3c(=O)c3cccc1c32 [Compound 7b, 3-Nicotinoyl-2,3-dihydropyrazino[3,2,1-de]acridin-7(1H)-one] | 86.22 ± 0.83% | 56.42 ± 0.47% | 46.91 ± 0.44% | 32.3 ± 0.16% | 19 ± 0.62% | 98.93 ± 0.66% | 97.41 ± 0.57% | 96.44 ± 0.46% | 95.2 ± 0.29% | 55.1 ± 0.88% | 89.93 ± 0.66% | 65.63 ± 0.27% | 52.5 ± 0.82% | 38.1 ± 0.42% | 19.4 ± 0.35% |
| 253 to 255 °C | O=C(c1ccccc1)N1CCn2c3ccccc3c(=O)c3cccc1c32 [Compound 7l, 3-Benzoyl-2,3-dihydro-1H,7H-pyrazino[3,2,1-de]acridin-7-one] | 95.13 ± 0.85% | 82.38 ± 0.27% | 75.3 ± 0.81% | 65.86 ± 0.47% | 38.8 ± 0.88% | 96.44 ± 0.31% | 94.13 ± 0.23% | 89.65 ± 0.12% | 82.83 ± 0.54% | 48.8 ± 0.67% | 97.17 ± 0.22% | 83.2 ± 0.99% | 76.71 ± 0.06% | 68.88 ± 0.47% | 30.6 ± 0.87% |
| 246 to 248 °C | Cc1cccc(C(=O)N2CCn3c4ccccc4c(=O)c4cccc2c43)n1 [Compound 7e, 3-(6-Methylpicolinoyl)-2,3-dihydropyrazino[3,2,1-de]acridin-7(1H)-one] | 82.18 ± 0.79% | 52.9 ± 0.75% | 42.1 ± 0.52% | 15.83 ± 0.14% | 11.3 ± 0.22% | 98.73 ± 0.97% | 97.08 ± 0.25% | 95.2 ± 0.76% | 91.72 ± 0.35% | 54 ± 0.77% | 84.9 ± 0.94% | 60.82 ± 0.33% | 49.1 ± 0.85% | 27.6 ± 0.35% | 16.3 ± 0.55% |

Further lines, the compound ahead of its results:

| Structure (SMILES) | melting point | activity at 1 µM (MDA-MB-231 cells) | activity at 5 µM (MDA-MB-231 cells) | activity at 10 µM (MDA-MB-231 cells) | activity at 25 µM (MDA-MB-231 cells) | activity at 50 µM (MDA-MB-231 cells) | activity at 1 µM (HEK293T cells) | activity at 5 µM (HEK293T cells) | activity at 10 µM (HEK293T cells) | activity at 25 µM (HEK293T cells) | activity at 50 µM (HEK293T cells) | activity at 1 µM (HT29 cells) | activity at 5 µM (HT29 cells) | activity at 10 µM (HT29 cells) | activity at 25 µM (HT29 cells) | activity at 50 µM (HT29 cells) |
| --- | --- | --- | --- | --- | --- | --- | --- | --- | --- | --- | --- | --- | --- | --- | --- | --- |
| O=C(c1ccncc1)N1CCn2c3ccccc3c(=O)c3cccc1c32 [Compound 7c, 3-Isonicotinoyl-2,3 dihydropyrazino[3,2,1-de]acridin-7(1H)-one] | 233 to 235 °C | 86.8 ± 0.96% | 57.39 ± 0.32% | 47.2 ± 0.93% | 38.69 ± 0.28% | 22.8 ± 0.89% | 96.63 ± 0.53% | 94.28 ± 0.53% | 90.18 ± 0.38% | 83.28 ± 0.21% | 49.08 ± 0.23% | 90.02 ± 0.31% | 66.2 ± 0.83% | 52.9 ± 0.84% | 40.37 ± 0.15% | 20.79 ± 0.08% |
| O=C(c1ccc(C(F)(F)F)cc1)N1CCn2c3ccccc3c(=O)c3cccc1c32 [Compound 7o, 3-(4-(Trifluoromethyl)benzoyl)-2,3-dihydro-1H,7H-pyrazino[3,2,1-de]acridin-7-one] | 240 to 242 °C | 94.97 ± 0.73% | 76.63 ± 0.13% | 70 ± 0.93% | 61.26 ± 0.29% | 36.1 ± 0.64% | 95.33 ± 0.63% | 91.17 ± 0.26% | 88.65 ± 0.11% | 80.68 ± 0.76% | 48.2 ± 0.79% | 93.92 ± 0.39% | 77.8 ± 0.91% | 69.54 ± 0.24% | 58.23 ± 0.26% | 24.3 ± 0.76% |
| O=c1c2ccccc2n2c3c(cccc13)N(c1nccs1)CC2 [Compound 7j, 3-(Thiazol-2-yl)-2,3-dihydropyrazino[3,2,1-de]acridin-7(1H)-one] | 239 to 241 °C | 87.9 ± 0.95% | 58.4 ± 0.88% | 48.2 ± 0.88% | 39.53 ± 0.23% | 23.3 ± 0.98% | 96.71 ± 0.63% | 94.47 ± 0.83% | 91.28 ± 0.48% | 84.17 ± 0.37% | 49.6 ± 0.38% | 89.55 ± 0.11% | 64.84 ± 0.45% | 51.5 ± 0.94% | 31.05 ± 0.19% | 17.4 ± 0.87% |
| O=C(c1ccc(F)cc1)N1CCn2c3ccccc3c(=O)c3cccc1c32 [Compound 7r, 3-(4-Fluorobenzoyl)-2,3-dihydro-1H,7H-pyrazino[3,2,1-de]acridin-7-one] | 236 to 238 °C | 96.33 ± 0.48% | 86.31 ± 0.21% | 78.85 ± 0.32% | 69 ± 0.05% | 40.7 ± 0.86% | 97.98 ± 0.88% | 95.25 ± 0.68% | 92.81 ± 0.21% | 88.11 ± 0.25% | 51.93 ± 0.23% | 91.9 ± 0.93% | 75.12 ± 0.73% | 66.15 ± 0.13% | 55.26 ± 0.23% | 21.6 ± 0.24% |
| O=C(c1ccc(O)cc1)N1CCn2c3ccccc3c(=O)c3cccc1c32 [Compound 7k, 3-(4-hydroxybenzoyl)-2,3-dihydro-1H,7H-pyrazino[3,2,1-de]acridin-7-one] | 265 to 267 °C | 97.31 ± 0.74% | 88.16 ± 0.43% | 80.54 ± 0.54% | 70.48 ± 0.17% | 41.5 ± 0.91% | 99.55 ± 0.46% | 97.77 ± 0.09% | 96.79 ± 0.17% | 95.46 ± 0.43% | 56.26 ± 0.12% | 96.6 ± 0.99% | 81.84 ± 0.11% | 74.68 ± 0.64% | 66.23 ± 0.18% | 28 ± 0.96% |
